≈ marks a conversion by molar mass, not a printed value. Records with an inconclusive call do not appear. Calls of active or inactive are those of the source. No rule for the calls is given here.
Test system: Zebrafish larvae lipid metabolism, fluorescent lipid gallbladder/intestine
Assay: larval zebrafish lipid processing modulation – whole organism, confirmation, fluorescent lipid, gallbladder/intestine, dose response (AID 691)

Row | Structure (SMILES) | MIC
1 | Clc1ccc(OCc2nnc(SCCN3CCCCC3)n2Cc2ccco2)cc1 | 75 µM (≈ 32.5 µg/mL)
2 | C=CCn1c(N)c(C(=O)Nc2ccccc2)c2nc3ccccc3nc21 | > 100 µM (inactive)
3 | CNc1ccccc1-c1nc2ccccc2n(C)c1=O | 15.6 µM (≈ 4.15 µg/mL)
4 | c1coc(-c2nnc3sc(-c4cccs4)nn23)c1 | 9.37 µM (≈ 2.57 µg/mL)
5 | Cc1csc(NC(=O)Nc2cccc(Cl)c2)n1 | > 100 µM (inactive)
6 | CCOC(=O)CCc1c(C)c(C#N)c2[nH]c3ccccc3n2c1=O | > 100 µM (inactive)
7 | CCCC1CC(=O)OC1(C)C(=O)CSc1n[nH]c(-c2ccccc2)n1 (stereo not given) | > 100 µM (inactive)
8 | N#Cc1ccc(CSc2nnc(-c3ccccn3)n2-c2ccccc2)cc1 | > 100 µM (inactive)
9 | Cc1ccc(CNC(=O)c2cc3c(=O)n4ccccc4nc3n(Cc3ccco3)c2=N)cc1 | 62.5 µM (≈ 27.5 µg/mL)
10 | CC1(C)Cc2c(C#N)c(NCc3ccco3)nc(-c3ccco3)c2CO1 | > 100 µM (inactive)
11 | Cc1c(N=Cc2c(O)n(C3CCCCC3)c(=O)[nH]c2=O)c(=O)n(-c2ccccc2)n1C | > 100 µM (inactive)
12 | COC(=O)c1cc(Br)c(=O)n(CCc2ccc(F)cc2)c1 | > 100 µM (inactive)
13 | c1ccc(-c2nnc3sc(Cc4cccs4)nn23)cc1 | 18.8 µM (≈ 5.59 µg/mL)
14 | N#Cc1c(NCCN)nc(NCc2ccccc2)c2c1CCN(Cc1ccccc1)C2 | > 100 µM (inactive)
15 | CCNC(=O)c1cc2c(=O)n3cccc(C)c3nc2n(CCc2ccccc2)c1=N | > 100 µM (inactive)
16 | COc1cccc(-c2nnc3sc(-c4ccco4)nn23)c1 | > 100 µM (inactive)
17 | OCCN1CCN(CCCN2c3ccccc3Sc3ccc(C(F)(F)F)cc32)CC1 | > 100 µM (inactive)
18 | O=C1c2ccccc2-c2onc3ccc(NCc4ccco4)c1c23 | 3.91 µM (≈ 1.24 µg/mL)
19 | Cc1ccc2nc(C3CCN(CC(=O)N4CCCCCC4)CC3)[nH]c2c1 | > 100 µM (inactive)
20 | CCN(CC)C(=O)c1sc2nc(-c3cccs3)cc(-c3cccs3)c2c1N | 12.5 µM (≈ 5.17 µg/mL)
21 | CC1(c2cnc(Nc3ccccc3)s2)CCC(=O)O1 (stereo not given) | > 100 µM (inactive)
22 | COc1ccccc1-c1nnc2sc(C3CCCCC3)nn12 | > 100 µM (inactive)
23 | COC(=O)C1=C(N)Oc2cc(C)oc(=O)c2C1c1ccncc1 (stereo not given) | > 100 µM (inactive)
24 | COC(=O)c1ccc(Cn2nnc3c(sc4nc(N5CCOCC5)c5c(c43)CCCC5)c2=O)o1 | > 100 µM (inactive)
25 | CC(C)N=c1cc2n(-c3ccc(Cl)cc3)c3ccccc3nc-2cc1Nc1ccc(Cl)cc1 | 6.25 µM (≈ 2.96 µg/mL)

Row | Structure (SMILES) | MIC
26 | CNc1oc(-c2ccccc2Cl)nc1C#N | > 100 µM (inactive)
27 | COc1ccc(C)cc1-n1nnnc1SC/C(O)=C(\C#N)c1nc2ccccc2[nH]1 | > 100 µM (inactive)
28 | Cc1ccc2[nH]c3c(c2c1)CN(C(=O)CN1CCCc2ccccc21)CC3 | > 100 µM (inactive)
29 | c1ccc(CN2CCN(c3ncnc4c3[nH]c3ccccc34)CC2)cc1 | 31.3 µM (≈ 10.7 µg/mL)
30 | CCN1CC2=C(OC(N)=C(C#N)C2c2ccccc2)/C(=C\c2ccccc2)C1 (stereo not given) | > 100 µM (inactive)
31 | Cc1c(N=Cc2c(O)n(CCc3ccc(F)cc3)c(=O)[nH]c2=O)c(=O)n(-c2ccccc2)n1C | > 100 µM (inactive)
32 | CS(=O)(=O)Nc1ccc([N+](=O)[O-])cc1Oc1ccccc1 | > 100 µM (inactive)
33 | CCOC(=O)CSc1nc(N)c(C(=O)Nc2ccc(N(C)C)cc2)s1 | 25 µM (≈ 9.51 µg/mL)
34 | N#CCSc1nc2c(c(=O)n1Cc1ccco1)C1(CCCC1)Cc1ccccc1-2 | 25 µM (≈ 10.1 µg/mL)
35 | N#CC1=C(SCC(=O)c2ccc(Cl)cc2)NC2=C(C(=O)CCC2)C1c1ccco1 (stereo not given) | > 100 µM (inactive)
36 | CC1Oc2ccccc2N(CC(=O)NCc2cccs2)C1=O (stereo not given) | > 100 µM (inactive)
37 | CCN(CC)c1ccc(C2Nc3cccc4cccc(c34)N2)c(O)c1 | > 100 µM (inactive)
38 | COCCCN1C(=O)C(O)=C(C(C)=O)C1c1ccccn1 (stereo not given) | > 100 µM (inactive)
39 | CC(=O)Nc1nnc(S(N)(=O)=O)s1 | > 100 µM (inactive)
40 | COc1ccc2c(c1)c(C(=O)CN1CCOCC1)c(C)n2C | > 100 µM (inactive)
41 | Cc1cccc2c1NC(C)CC2C (stereo not given) | > 100 µM (inactive)
42 | Cc1nnc(NC(=O)C2CCCO2)s1 (stereo not given) | > 100 µM (inactive)
43 | Cn1c(C(=O)OC(C(=O)NC2CCCC2)c2cccnc2)cc2sccc21 (stereo not given) | > 100 µM (inactive)
44 | COc1ccc(OC)c(Nc2nc(-c3cccs3)cs2)c1 | 56.2 µM (≈ 17.9 µg/mL)
45 | CCOC(=O)CSc1nnc2n(Cc3ccccc3)c(=O)c3c4c(sc3n12)CCC4 | > 100 µM (inactive)
46 | COc1ccc(C2CC(C(F)(F)F)n3ncc(C(=O)Nc4cccc(O)c4)c3N2)cc1OC (stereo not given) | > 100 µM (inactive)
47 | CCOC(=O)C1CCCN(c2nc3ccccc3nc2C(C#N)C(=O)OCCOC)C1 (stereo not given) | > 100 µM (inactive)
48 | CCCCOc1ccccc1C(=O)NCCCC(=O)O | > 100 µM (inactive)
49 | COC(=O)c1sccc1NC(=O)c1ccco1 | > 100 µM (inactive)
50 | CN(C)[C@@H]1C(=O)C(C(N)=O)=C(O)[C@@]2(O)C(=O)C3=C(O)c4c(O)ccc(Cl)c4[C@@H](O)[C@H]3C[C@@H]12 | > 100 µM (inactive)
